# Assay results taken from patent publication US7244731B2, “6-Methylpyridine derivatives, method for preparing thereof and antiviral pharmaceutical composition comprising the same” (B & C Biopharm, priority 2002, dated 2007).
# Tests used:
# [1] = Cytotoxicity assay (MTT assay); assay type: cell-based; conditions: human, HepG2 cells, HepG 2 cell line
# Procedure: To find out cytotoxicity of 6-methylpyridine derivative of the chemical formula 1, an in vitro experiment was conducted on the basis of the generally known MTT assay using HepG 2 cell line.
# [2] = target: T1, HCV RNA polymerase (RNA dependent RNA polymerase, NS5B) (Hepatitis C virus genotype 1b, UniProt P26663); experiment: Inhibitory effect on activity of recombinant HCV RNA polymerase in vitro; assay type: biochemical, Hepatitis C virus (HCV-1b type)
# T1 construct: NS5B region (1773 bps) was amplified by PCR and cloned into pVLHIS; (His)6; made in house; host or cells: Sf9 insect cells infected with recombinant baculovirus (pVLHIS-NS5B)
# Procedure: Test of Inhibitory Effect on Activity of HCV RNA Polymerase (RNA Dependent RNA Polymerase, NS5B) In Vitro
# The following in vitro experiments were conducted to find out the effect of inhibition activity of compounds of the present invention against HCV RNA Polymerase (RNA dependent RNA polymerase, NS5B).
# HCV cDNA was obtained from the blood of HCV-1b type HCV patient and NS5B region (1773 bps) was amplified by PCR and cloned into pVLHIS, a baculovirus transfer vector, to prepare recombinant transfer vector. The prepared transfer vector and the wild-type AcNPV vector were cotransfected into Sf 9 cell line to yield recombinant baculovirus with the histidine-tagged recombinant vector pVLHIS-NS5B. Sufficiently cultured insect cells were infected with the resulting recombinant baculovirus and cultured in Grace' medium containing 10% FBS for 3–4 days. The culture broth was centrifuged to obtain only the infected cells. The cells were washed three times with PBS and resuspended in binding buffer [50 mM Na-phosphate (pH 8.0), 30 mM NaCl, 10 mM imidazole, 1 mM DTT, 10% glycerol, 1% NP-40], sonicated and the clearized lysate was obtained. Recombinant NS5B was purified by affinity column chromatography using a Ni-NTA His bind resin (Novagen) to produce pure NS5B protein. The (His)6-tagged NS5B was bound to Ni-NTA resin and washed with the binding buffer containing 50 mM imidazole. The bound NS5B was eluted with the binding buffer containing imidazole in a step-gradient manner (100–300 mM). The NS5B protein fractions were dialyzed against buffer [50 mM Tris-HCl, 50 mM NaCl, 1 mM DTT, […], 10% glycerol], followed by at −70° C. in a small aliquot.
# The 3′UTR cDNA (220 bp) of HCV was obtained from 1b HCV RNA of the blood of a hepatitis C patient by PCR and cloned into pcDNA3 vector. Linearized DNA fragment containing 3′-UTR was prepared using the restriction enzyme, EcoRI and used as a temperate for in vitro transcription using T7 RNA ploymerase to prepare RNA fragment containing 3′-UTR.
# In Vitro inhibitory activity of the compounds of the present invention against recombinant HCV RNA polymerase was measured as follows.
# A streptavidin-coated well plate was prepared suitable for the sample to be examined. 25 μl of 2× assay buffer [50 mM Tris-Cl (pH 7.5), 100 mM NaCl, 10 mM MgCl2, 20 mM KCl, 1 mM EDTA, 1 mM DTT] and 10 μl of purified HCV RNA polymerase 200 ng and 3′-UTR template RNA were added to each well. Then, 5 μl of the sample to be examined was added to have final concentrations of 10, 1, 0.1 and 0.01 μg/mL. […] The optical density (OD) was measured using an ELISA reader (Bio-Tek instrument Co.) at 405 nm. The inhibitory effect on the activity of HCV polymerase was calculated by subtracting the OD of the positive control without the sample.
# T1 sequence (P26663 2420-3010): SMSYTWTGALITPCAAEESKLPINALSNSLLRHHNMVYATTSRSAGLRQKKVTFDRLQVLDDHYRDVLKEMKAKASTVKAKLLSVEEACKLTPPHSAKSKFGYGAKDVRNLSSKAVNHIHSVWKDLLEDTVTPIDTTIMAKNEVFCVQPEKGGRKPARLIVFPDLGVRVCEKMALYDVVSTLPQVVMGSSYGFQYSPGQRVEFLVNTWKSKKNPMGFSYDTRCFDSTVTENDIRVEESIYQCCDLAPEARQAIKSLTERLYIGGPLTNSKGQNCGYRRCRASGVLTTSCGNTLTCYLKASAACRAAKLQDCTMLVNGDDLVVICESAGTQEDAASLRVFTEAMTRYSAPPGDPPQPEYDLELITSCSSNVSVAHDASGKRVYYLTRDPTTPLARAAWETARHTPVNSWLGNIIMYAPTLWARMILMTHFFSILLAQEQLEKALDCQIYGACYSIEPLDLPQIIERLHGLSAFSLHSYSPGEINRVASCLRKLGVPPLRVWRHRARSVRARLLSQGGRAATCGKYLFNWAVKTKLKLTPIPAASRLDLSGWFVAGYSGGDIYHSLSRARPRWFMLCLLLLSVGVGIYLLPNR
smiles,measurement,setting,value
"Cc1ccc(C(=O)O)c(Nc2ccc(N3CCOCC3)cc2)n1 [Example 1, 6-methyl-2-[4-(4-morpholino)anilino] nicotinic acid]",CC50,[1],> 100 µg/mL
same,Inhibition of activity of HCV RNA polymerase (%),[2]; 0.01 μg/ml,46%
same,Inhibition of activity of HCV RNA polymerase (%),[2]; 0.1 μg/ml,65%
same,Inhibition of activity of HCV RNA polymerase (%),[2]; 1 μg/ml,82%
same,Inhibition of activity of HCV RNA polymerase (%),[2]; 10 μg/ml,99%
